Reference: patent US20090085008A1, “Cellulose compound composition and cellulose compound film” (FUJIFILM Corporation, priority 2005, published 2009)

Assay: Solubility in mixture solvent methylene chloride:methanol = 87:13
Format: physicochemical
Conditions: Methylene chloride:Methanol = 87:13 (mass ratio)
Procedure: A test was conducted to evaluate the solubility of the compound represented by formula (1) or (2), which can be used in the present invention, in a halogen-containing mixture solution.

- Solubility: 1%
Compound: COc1cc(OC)c(C(=O)Oc2ccc(C(=O)Oc3ccc(-c4ccc(OC(=O)c5ccc(OC(=O)c6cc(OC)c(OC)cc6OC)cc5)cc4)cc3)cc2)cc1OC [Analogous compound]
